Results as given in US6632794B1, “Insulin-like growth factor agonist molecules” (Genentech, Inc., priority 1997, dated 2003).

How the values were obtained:
Format in all cases: in vivo, rat
male Wistar rats = assay: IV injection into conscious normal rats, plasma glucose and insulin; conditions: 100 μg IV; for fall in blood glucose / plasma insulin response: after 10 mins
Description: Seven week old male Wistar rats (240-250 g, Charles Rivers Laboratories, Hollister, Calif.) were anesthetized with KETAMINE/XYLAZINE™ anesthesia and the right jugular vein was cannulated with a silicone rubber cannula that was developed for chronic blood sampling. Clark et al., J. Endocrinol., 111: 27-35 (1986). Following a two- to three-day recovery period, two basal blood samples were taken at −10 and −5 minutes, the test substances administered to the rats by IV injection, and then blood samples collected after 5, 10, 20, 30, 45, 60, and 120 minutes, and the plasma was immediately separated by centrifugation. The glucose and insulin concentrations were subsequently determined either by a coupled hexokinase procedure using a Chem 1A serum chemistry analyzer or, in the later case, a rat insulin RIA kit (Linco Research, Inc., St. Charles, Mo.).
Statistical comparisons were made by an analysis of variance (ANOVA) with a Duncan's Multiple Range test. A p value of <0.05 was considered as being statistically significant. All data are represented as the mean±SEM.
Two treatment groups, with five rats per group, were dosed IV with either (Leu^24,Ala^31)hIGF-I (100 μg) or PBS.
The rats in three treatment groups, with 4-5 rats per group, were dosed IV with either (Leu^24,Ala^31)hIGF-I (100 μg) or rhIGF-I (100 μg) and a control group was given PBS.

dwarf rats = assay: Long-term administration to GH-deficient dwarf (dw/dw) rats; conditions: for retroperitoneal fat depot weight: at sacrifice; for AST / BUN / CK / Creatinine / Glucose / Insulin: serum at sacrifice, Means ± SEM
Source text: Young female dwarf rats (11-12 wk of age, 115-140 g) were bred by homozygous mating (Charles Rivers Laboratories) and delivered to the Genentech Animal House where they were housed five per cage on polystyrene chips and fed a standard animal chow and water ad libitum, and kept in a room of constant humidity and with controlled temperature and lighting. The animals were weighed, and based on uniformity of body weight, 37 of the animals were selected and randomized into treatment groups and cages to give six treatment groups of equal initial body weights (approximately 120 g).
The study consisted of six groups of rats with six or seven rats per group.
The mutant (Leu^24,Ala^31)hIGF-I and native sequence recombinant human IGF-I were administered by osmotic minipumps (ALZET 2001™, Alza, Palo Alto, Calif.) which were placed in a subcutaneous tunnel in the dorsal neck region while the rats were anesthetized with KETAMINE/XYLAZINE™ anesthesia. The pumps were filled with solutions so that the calculated daily dose was 120 μg per rat per day (1 mg/kg/day), assuming that the pump delivered as per the manufacturer's description (24 μl of solution per day).
Recombinant human GH (50 μg/day) was administered for eight days by twice daily sc injection, with each injection being of 25 μg in a volume of 100 μl.
Body weights were measured daily in the morning. After 8 days the animals were anesthetized using CO2 and exsanguinated by cardiac puncture. The remaining blood was allowed to clot and serum was separated and stored for further analysis.
Spleen, thymus, heart, liver, kidney, and perirenal fat were removed and weighed. The tibia was removed and fixed in neutral buffered formalin for histological measurement of epiphyseal plate width.
Serum chemistries were measured using a TECHNICON CHEM I PLUS™ analyzer. Serum insulin concentration was measured using an RIA kit supplied by Linco, Inc. To measure the IGF-I concentrations the serum was extracted using acid ethanol and the supernatant diluted to neutrality and assayed for IGF-I by RIA. The concentration of rat IGF-I in serum extract was measured by RIA using a kit from Diagnostic Systems Laboratories, Inc. Human IGF-I concentration was measured by RIA at Genentech, Inc.
Tibia were sectioned longitudinally, stained with TOLULENE BLUE™ stain and mounted on microscope slides. The tibial epiphyseal plate width was measured using an ocular micrometer attached to a microscope.
Data were analyzed statistically by analysis of variance using one-factor ANOVA followed by Duncan's Range Test.

[1] = test system: Zucker Diabetic Fatty (ZDF) rats; assay: Long-term administration to diabetic rats incl. glucose tolerance test; conditions: for change in blood glucose two hours following the glucose challenge: glucose tolerance test day 14, 2 g/kg ip, 150 μg tid
Description: Obese male Zucker Diabetic Fatty (ZDF) rats (6-7 weeks of age, 225-250 g, Genetic Models Inc., Indianapolis, Ind. 46268) were group housed (3/cage) in a room controlled for temperature and lighting and fed the pelleted rat diet specified by the breeders (Purina 5008, 6% fat breeder chow) and tap water ad libitum. After three days acclimation, a blood sample was obtained from the tail vein for measurement of blood glucose and insulin, which was measured by rat-specific RIA (Linco Research Inc., St. Charles, Mo.). Animals were randomized into four treatment groups and into cages to give groups balance so as to have equivalent initial blood glucose levels, insulin levels, and body weights.
The experiment consisted of four groups of rats with seven rats per group.
1.0 The mutant (Leu^24,Ala^31)hIGF-I was prepared at two concentrations (1.5 mg/ml, and 0.5 mg/ml) so that with three injections per day two doses were given (a total of 450 μg/d or 150 μg/d). rhIGF-I was prepared at one concentration (1.5 mg/ml) so that with three injections per day one dose was given (450 μg/d). A fourth group of rats were given the excipient. The injections, each of 100 μl volume, were given at 7am, 1pm, and 7pm for 15 days without disrupting the controlled diurnal lighting of the vivarium room. Body weights were measured each day at 1 pm.
Blood samples were collected from non-fasted rats on the evening before the first day of dosing and on days 3, 7, and 10. Blood samples (400 μl) on days 3, 7, and 10 were taken by bleeding from a tail vein one hour after the mid-day injection. The blood was allowed to clot, and serum was separated and stored before analysis.
A glucose tolerance test was performed on day 14 of the study. Rats received their regular morning injection and then their food was withdrawn. After a 3-5-hour fast a blood sample (400 μl) was taken via the tail vein. Rats then received 2 g/kg dextrose(50%) by intraperitoneal (ip) injection. A blood sample (200 μl) was taken via tail vein at 10, 60, and 120 minutes after dextrose administration. Blood was allowed to clot and serum was separated and stored for measurement of glucose and insulin concentrations. After the glucose tolerance test was completed, animals were re-fed.
On day 15, one hour after the morning injection, rats were asphyxiated with carbon dioxide and bled by cardiac puncture. Blood was allowed to clot and serum was separated and frozen. Spleen, thymus, heart, liver, kidney, and perirenal fat were removed, blotted dry, and immediately weighed.
Statistical comparisons for each time point were made by an analysis of variance with a Duncan's Multiple Range test. A p value of <0.05 was considered as being statistically significant. All data are represented as the mean +SEM, with seven animals per treatment group.

[2] = Day one, 120 μg/day each by pump
[3] = Day 10, 150 μg three times a day
[4] = day 13, 150 μg three times a day SC
[5] = glucose tolerance test day 14, 150 μg tid

| Substance | time plasma insulin remained depressed (male Wistar rats; Study Two) [min] | fall in blood glucose (male Wistar rats; Study Two) | plasma insulin response (male Wistar rats; Study Two) | epiphyseal plate widths (dwarf rats; 8 days) | body weight gain (dwarf rats; [2]) [g] | retroperitoneal fat depot weight (dwarf rats; 120 μg/day each by pump) [g] | AST (dwarf rats; 8 days) [U/l] | BUN (dwarf rats; 8 days) [mg/dL] | CK (dwarf rats; 8 days) [u/l] | Creatinine (dwarf rats; 8 days) [mg/dL] | Glucose (dwarf rats; 8 days) [mg/dL] | Insulin (dwarf rats; 8 days) [ng/mL] | rise in blood glucose, percentage change from basal [1, 3] [%] | body weight gain [1, 4] [g] | insulin in response to the glucose challenge [1, 5] [ng/mL] | change in blood glucose two hours following the glucose challenge [1] [mg/dL] | further results |
| --- | --- | --- | --- | --- | --- | --- | --- | --- | --- | --- | --- | --- | --- | --- | --- | --- | --- |
| (Leu^24,Ala^31)hIGF-I | ≥ 120 | small but statistically significant fall in blood glucose | fall in insulin concentrations of a similar magnitude and degree of statistical significance | increased the mean plate widths compared to the individual treatments, but these increases did not reach statistical significance | 0.5 ± 0.6 | 0.53 ± 0.10 | 143 ± 8 | 17.8 ± 0.4 | 301 ± 44 | 0.23 ± 0.03 | 174 ± 18 | 0.88 ± 0.09 | 74±22 | 105.1 ± 2.3 | 10.6 ± 0.6 | 59 ± 11 | plasma insulin levels, % of that of the control group (male Wistar rats; Study One): 25%; time plasma insulin remained depressed (male Wistar rats; Study One): 60 min; fall in blood glucose (male Wistar rats; Study One): brief but statistically significant; blood levels of endogenous rat IGF-I (dwarf rats; 8 days): lower; absolute spleen weight (dwarf rats; 8 days, 120 μg/day by pump): 350 ± 14 mg; body weight gain (dwarf rats; day 6, 120 μg/day by pump): 4.2 ± 0.6 g; rise in blood glucose, percentage change from basal ([1]; Day 10, 50 μg three times a day): 84±20%; body weight gain ([1]; day 13, 50 μg three times a day SC): 100 ± 2.1 g; insulin in response to the glucose challenge ([1]; glucose tolerance test day 14, 50 μg tid): 10.2 ± 0.7 ng/mL |
| IGF-I: native-sequence recombinant human insulin-like growth factor-I (Genentech) | 120 | brief but statistically significant fall in blood glucose | decreased significantly | significantly (p<0.05) increased | 1.2 ± 0.4 | 0.48 ± 0.06 | 128 ± 11 | 16.0 ± 0.7 | 225 ± 18 | 0.22 ± 0.05 | 190 ± 24 | 0.54 ± 0.06 | 25±10 | 114.5 ± 1.6 | 12.2 ± 0.7 | 39 ± 12 |  |
